{"source": "patent US20210382068A1", "about": "“HLA SINGLE ALLELE LINES” (priority 2018, published 2021)", "molecules": {"B1": {"name": "IFNγ: interferon gamma (Peprotech) used to stimulate cultured tumor cells (protein, UniProt P01579 24-161, looked up)", "Interferon gamma": "QDPYVKEAENLKKYFNAGHSDVADNGTLFLGILKNWKEESDRKIMQSQIVSFYFKLFKNFKDDQSIQKSVETIKEDMNVKFFNSNKKKRDDFEKLTNYSVTDLNVQRKAIHELIQVMAELSPAAKTGKRKRSQMLFRG"}}, "key": {"[1]": {"test_system": "advanced hormone refractory prostate cancer patients", "details": "cited from earlier work"}, "[2]": {"test_system": "ovarian carcinoma patients", "details": "cited from earlier work"}, "[3]": {"details": "more than 25 clinical trials; cited from earlier work"}, "healthy human volunteers": {"test_system": "healthy human volunteers", "details": "8 subjects with one single s.c. administration versus 4 subjects receiving placebo; cited from earlier work"}, "[4]": {"test_system": "patient tumor cell lines (MEL, GBM, ccRCC)", "assay": "IFNγ stimulation of patient tumor cell lines, HLA-bound peptides by IP/MS", "format": "cell-based, human", "details": "IFNγ-matched samples, 2000 Unit/ml IFNg for 3 days"}}}
{"molecule": "C[C@]12CC[C@@H]3c4ccc(OC(=O)N(CCCl)CCCl)cc4CC[C@H]3[C@@H]1CC[C@@H]2O", "note": "[estramustine]", "values": [{"measurement": "patients with >50% decrease in serum prostate specific antigen (PSA)", "setting": "[1]", "result": 54, "unit": "%"}]}
{"molecule": "Polyinosinic-Polycytidylic Acid-poly-L-lysine Carboxymethylcellulose [poly-ICLC]", "values": [{"measurement": "generation of NY-ESO-1-specific CD4+ and CD8+ T-cell and antibody responses", "setting": "[2]; 1.4 mg poly-ICLC and Montanide added, compared to OLP alone or OLP and Montanide", "result": "markedly enhanced"}, {"measurement": "patients showing induction of CD4+ and CD8+ T cell, as well as antibody responses to the peptide", "setting": "[2]; poly-ICLC in combination with NY-ESO-1 peptide vaccine, in addition to Montanide, phase 1", "result": "> 90", "unit": "%"}, {"measurement": "toxicity profile", "setting": "[3]", "result": "relatively benign toxicity profile"}, {"measurement": "differential expression of genes versus placebo", "setting": "healthy human volunteers", "result": "up to 212 genes"}]}
{"molecule": "B1", "values": [{"measurement": "increase in peptides derived from IFNγ-response genes post stimulation", "setting": "[4]", "result": "2.4-5.6%"}]}
